The values below come from patent publication US10906890B2, “Triazole phenyl compounds as agonists of the APJ receptor” (AMGEN INC., priority 2016, dated 2021).

For test [1], the target named is human APJ-AT1R (angiotensin Type 1) double stable CHO cell line (Homo sapiens (Human), UniProt P35414). The test is described as follows: IP1 accumulation (TR-FRET) with AngII in APJ-AT1R double stable CHO cells. The class given is cell-based. The conditions noted are these: fixed concentration of agonist with different concentrations of AngII. (In general: TR-FRET usually uses a lanthanide donor and a delayed reading to cut background.)
Sequence of human APJ-AT1R (angiotensin Type 1) double stable CHO cell line (P35414 whole entry): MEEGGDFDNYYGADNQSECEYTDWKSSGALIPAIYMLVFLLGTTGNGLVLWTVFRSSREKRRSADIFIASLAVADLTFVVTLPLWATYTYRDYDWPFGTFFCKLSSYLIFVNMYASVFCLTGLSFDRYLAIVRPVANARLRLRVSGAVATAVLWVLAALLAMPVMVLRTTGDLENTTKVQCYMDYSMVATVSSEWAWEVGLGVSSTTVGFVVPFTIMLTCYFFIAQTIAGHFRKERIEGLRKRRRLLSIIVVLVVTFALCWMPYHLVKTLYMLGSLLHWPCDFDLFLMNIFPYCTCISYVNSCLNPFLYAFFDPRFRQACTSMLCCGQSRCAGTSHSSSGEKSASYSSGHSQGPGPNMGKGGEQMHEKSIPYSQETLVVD
Description: Briefly, the CHO-K1 APJ/AT1R cells were seeded in culture medium of DMEM-F12 and 10% FBS at a density of 15 k/well in a 96 well plate overnight. The next day, the culture medium was replaced with medium containing no serum for 4 hours. The compound AngII at a range of concentrations (1 pM-10 μM) with or without different concentrations of APJ agonists were diluted in stimulation buffer and added to the cell plate. The plate was sealed and incubated for 1 hour. This was followed by addition of IP-d2 conjugate followed by europium cryptate antibody conjugate into the wells. The plate was sealed, followed with incubation for 2 hours at RT. Time-resolved fluorescence resonance energy (TR-FRET) at 620 nm and 665 nm was measured after 2 hours with an Envision reader. The signal ratios and delta F were calculated and the amount of IP1 produced was inversely proportional to the TR-FRET ratio, 665/620 nm.

The subject of test [2] is Heart failure rat model (MI Rat Model). The test is described as follows: In vivo heart failure (MI) rat model, cardiac contractility. The conditions noted are these: heart failure rats in vivo, acute settings, with ACE inhibitor captopril. The protocol:
Based on the ex vivo findings in isolated heart assay, APJ agonists were dosed in vivo to investigate the translation of cardiac contractility in in vivo settings. Male Lewis rats (Charles River, USA) at 2-3 months of age were used for the study. Heart failure was induced by permanent ligation of the left descending coronary artery which results in injury to the heart with an ejection fraction of <35%. APJ agonists were administered dose dependently acutely for a period of 30 min. Administration of example compounds lead to an increase in cardiac contractility as measured by dP/dtmax (derivative of left ventricular pressure) (Table 29).

The target in another test is human APJ receptor (Homo sapiens (Human), UniProt P35414). Description: [35S]GTPγS binding assay on membranes from CHO cells stably expressing human APJ receptor. The class given is biochemical. Particulars: means of several independent experiments, read-out: Activity hAPJ SPA EC50 IP. The method, boiled down:
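Membranes from CHO cells stably expressing FLAG-tagged human APJ incubated with [35S]GTPγS in buffer with optimized GDP, MgCl2 and NaCl levels, 90 min at RT. Signal read by imaging; EC50 by non-linear regression from means of several independent experiments.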
On the technique in general: GTPγS resists hydrolysis and so accumulates on activated G proteins.

Sequence of human APJ receptor (P35414 whole entry): as above

Regarding `CCCCc1nc(Cl)c(CO)n1Cc1ccc(-c2ccccc2-c2nn[nH]n2)cc1` [losartan], the “positive cooperativity on AngII IP1 response” value in test [1] is on record as “relieved this cooperativity”.
With `C[C@H](CS)C(=O)N1CCC[C@H]1C(=O)O` [Captopril, captopril], in test [2], the “improvement in contractility or ejection fraction” value is on record as “does not show a marked improvement in contractility or ejection fraction”.
Take `Cc1cnc([C@H](OC(C)C)[C@H](C)S(=O)(=O)Nc2nnc(-c3ccccc3)n2C2CCOCC2)nc1` [Example 63.0, (1S,2S)-1-(1-methylethoxy)-1-(5-methyl-2-pyrimidinyl)-N-(5-phenyl-4-(tetrahydro-2H-pyran-4-yl)-4H-1,2,4-triazol-3-yl)-2-propanesulfonamide]: the EC50 (as a rule, the concentration giving half of the maximal effect) at human APJ receptor stood at 420 nM.
Still for that read-out and setting: the same measure for `COc1cccc(OC)c1-n1c(NS(=O)(=O)[C@@H](C)[C@H](OC)c2ncc(C)cn2)nnc1-c1ccc2c(c1)OC(F)(F)O2` [Example 39.0, (1R,2S)-N-(5-(2,2-difluoro-1,3-benzodioxol-5-yl)-4-(2,6-dimethoxyphenyl)-4H-1,2,4-triazol-3-yl)-1-methoxy-1-(5-methyl-2-pyrimidinyl)-2-propanesulfonamide]: 160 nM; for `COc1cccc(OC)c1-n1c(NS(=O)(=O)[C@@H](C)[C@H](OC)c2ncc(C)cn2)nnc1-c1ccc2nccnc2c1` [Example 84.0, (1R,2S)-N-(4-(2,6-dimethoxyphenyl)-5-(6-quinoxalinyl)-4H-1,2,4-triazol-3-yl)-1-methoxy-1-(5-methyl-2-pyrimidinyl)-2-propanesulfonamide]: 55 nM; for `COc1cccc(OC)c1-n1c(NS(=O)(=O)[C@@H](C)[C@H](OC)c2ncc(C)cn2)nnc1-c1ccc(F)c(F)c1` [Example 72.0, (1R,2S)-N-(5-(3,4-difluorophenyl)-4-(2,6-dimethoxyphenyl)-4H-1,2,4-triazol-3-yl)-1-methoxy-1-(5-methyl-2-pyrimidinyl)-2-propanesulfonamide]: 4.5 nM.
Turning to `COc1ncnc(OC)c1-n1c(NS(=O)(=O)[C@@H](C)[C@H](C)c2ncc(C)cn2)nnc1-c1cccc(C(F)(F)F)c1` [Example 48.0], the EC50 at human APJ receptor turned out to be 23 nM.
`COc1cccc(OC)c1-n1c(NS(=O)(=O)c2cncc(Br)c2)nnc1-c1ccccc1` [Example 60.0, 5-bromo-N-(4-(2,6-dimethoxyphenyl)-5-phenyl-4H-1,2,4-triazol-3-yl)-3-pyridinesulfonamide]: the EC50 at human APJ receptor was found to be 350 nM.
With `CO[C@H]1CCC[C@@H](OC)[C@@H]1n1c(NS(=O)(=O)[C@@H](C)[C@H](C)c2ncc(C)cn2)nnc1-c1ccccc1` [Example 33.0, (2S,3R)—N-(4-((1r,2R,6S)-2,6-Dimethoxycyclohexyl)-5-phenyl-4H-1,2,4-triazol-3-yl)-3-(5-methyl-2-pyrimidinyl)-2-butanesulfonamide], the EC50 on human APJ receptor amounted to 230 nM.
Still for that read-out and setting: the same measure for `C[C@H](c1ncc(Cl)cn1)[C@H](C)S(=O)(=O)Nc1nnc(-c2ccccc2)n1-c1c(F)cccc1F` [Example 46.0, (2S,3R)-3-(5-chloro-2-pyrimidinyl)-N-(4-(2,6-difluorophenyl)-5-phenyl-4H-1,2,4-triazol-3-yl)-2-butanesulfonamide]: 1.7 nM; for `Cc1cnc([C@@H](O[Si](C)(C)C(C)(C)C)[C@H](C)S(=O)(=O)Nc2nnc(-c3ccccc3)n2-c2c(F)cccc2F)nc1` [Example 44.0, (1R,2S)-1-((tert-butyl(dimethyl)silyl)oxy)-N-(4-(2,6-difluorophenyl)-5-phenyl-4H-1,2,4-triazol-3-yl)-1-(5-methyl-2-pyrimidinyl)-2-propanesulfonamide]: 150 nM; for `COc1cccc(-c2nnc(NS(=O)(=O)[C@@H](C)[C@H](OC)c3ncc(C)cn3)n2-c2c(OC)cccc2OC)c1` [Example 76.0, (1R,2S)-N-(4-(2,6-dimethoxyphenyl)-5-(3-methoxyphenyl)-4H-1,2,4-triazol-3-yl)-1-methoxy-1-(5-methyl-2-pyrimidinyl)-2-propanesulfonamide]: 0.51 nM.
`COc1cccc(OC)c1-n1c(NS(=O)(=O)[C@H]2CCCN(c3ncc(Cl)cn3)C2)nnc1-c1ccccc1` (single isomer, unassigned) [Example 34.0, (S)-1-(5-Chloropyrimidin-2-yl)-N-(4-(2,6-dimethoxyphenyl)-5-phenyl-4H-1,2,4-triazol-3-yl)piperidine-3-sulfonamide or (R)-1-(5-chloropyrimidin-2-yl)-N-(4-(2,6-dimethoxyphenyl)-5-phenyl-4H-1,2,4-triazol-3-yl)piperidine-3-sulfonamide]: the EC50 at human APJ receptor was found to be 28 nM.
Turning to `COc1ncnc(OC)c1-n1c(NS(=O)(=O)[C@@H](C)[C@H](OC)c2ncc(C)cn2)nnc1-c1cccc(Br)c1` [Example 1.0, (1R,2S)—N-(5-(3-Bromophenyl)-4-(4,6-dimethoxypyrimidin-5-yl)-4H-1,2,4-triazol-3-yl)-1-methoxy-1-(5-methylpyrimidin-2-yl)propane-2-sulfonamide], at human APJ receptor, the EC50 was found to be 4.2 nM.
